SMILES strings stand for the structures. Read-outs that look alike come from different tables or passages of the source.

The assay relates to Bordetella pertussis. As to the kind of experiment: microbe, parasite or virus in culture. It is filed as cell-based. The note with it: Bordetella pertussis. The protocol: Cells were harvested by centrifugation, washed twice with NaCl 0.9% (w/v), and resuspended in fresh medium (de novo minimal CDM; see composition in Table 1) at a theoretical OD650 nm of 0.5, as calculated from the OD650 nm of the culture before harvest. 20 μl of this cell suspension were used to inoculate each well of a 96-well microtiter plate filled with 180 μl of de novo minimal CDM. Only the inner wells of the plate were used for cultures, in order to minimize evaporation, and two controls were included, in which the supplement solution was replaced with water.
The plate was then incubated for 7 days at 35° C. in a Biotek Synergy H1 reader with constant shaking, and growth was automatically monitored every 10 minutes as OD650 nm.
The relative growth yield and growth rate for each supplement was then averaged over the three independent repeats, and the standard deviation was calculated.

Take `CC(=O)C(=O)O` [Sodium pyruvate]: the activity at 2000 µM reads like this: (168 h, read-out: Relative yield Average, 2 mM in medium, max OD650 nm relative to water controls) < 95%; (read-out: Relative growth rate Average, 2 mM in medium, first generation, relative to water controls) < 95%.
